Experimental data reported in US20250327074A1 (SHAOXING INSTITUTE, ZHEJIANG UNIVERSITY, priority 2024, published 2025).

Assays:
Type in all cases: cell-based
[1] = system: FLucY255ACG/K529TCG mutant; test: FLuc dual caged UAA decaging luminescence assay; conditions: dual incorporation of ONBY with TCOK/PABK
Source text: To established a method for orthogonal activation control of proteins, two caged UAAs are incorporated site-specifically into the active pocket or adjacent sites of target proteins through the dual rare codon recoding strategy, wherein steric hindrance leads to the protein inactivation, followed by protein activation through photochemical or chemical decaging strategies. The TCG/ACG dual recoding system decodes TCG/ACG sites as serine/threonine in the absence of UAAs. During the screening of FLuc, the K529 and Y255 site are identified with minimal background upon serine incorporation and threonine incorporation respectively, which were subsequently used for dual caged UAA incorporation. Using the FLucY255ACG/K529TCG mutant as an example, the TCG recoding system decoding ONBY, the ACG recoding system decoding TCOK/PABK, and reporter genes were co-transfected into cells, followed by luminescence assay to evaluate protein activation.

[2] = system: rare codon in EGFP reporter, HEK293T cells; test: LC-MS recoding efficiency of rare codons in EGFP reporter; conditions: TetRS/PylTyyy, 200 μM TetBu, HEK293T
Protocol: (§1) The recoding translation system and the rare codon-bearing POI were co-transfected into HEK293T cells. Then, two methods were used to calculate the ncAA recoding rate: 1) LC-MS analysis: the protein of the POI mixture, including the fraction incorporated with ncAA and the fraction with NAA at rare codons, was purified by Ni2+-NTA beads and subjected to LC-MS analysis. The ncAA recoding rate was determined by the intensity of two fractions quantified by LC-MS. 2) TCO-PEG5000 mass tag labeling analysis: this method was suitable for quantifying the TetBu recoding rate in this work. When the protein mixture was incubated with TCO-PEG5000 mass tag, the protein incorporated with TetBu would be labeled by this mass tag and migrated much slower in SDS-PAGE.
(§2) When the recoding system (TetRS/PylTyyy) is co-expressed with a target protein carrying the recoding codon in HEK293T, the recoding codon can be translated into a natural amino acid by endogenous tRNA (Dec-tRNA), or recoding into TetBu by the engineered tRNA (Rec-tRNA), producing a mixture of protein byproducts (with a single-site mutation) and the target protein containing TetBu. Based on this, two methods were established to assess sense codon recoding efficiency: a) Liquid chromatography-mass spectrometry (LC-MS) for differentiates proteins based on molecular weight differences, and b) TCO-PEG5000 macromolecular label target proteins containing TetBu, which increases their molecular weight by 5 kDa. The shift in protein bands is detected via immunoblotting (FIG. 2).
(1) Transfection: Plasmids encoding the TetBu/PylTyyy recoding system (where xxx represents different codons and yyy represents different anticodons) were co-transfected with the plasmid mCherry-T2A-EGFP^N149XXX-6×His at a 1:1 (g:g) ratio. For a 10 cm dish, the total transfection mixture contained 20 μg DNA+[…] Lipofectamine 2000+2 mL Opti-MEM.
(2) Protein expression and purification: After 6 hours, the medium was replaced with fresh DMEM containing 200 μM TetBu for 40 hours to induce protein expression. Cells were lysed in 1 mL Modified RIPA Buffer, and the supernatant was purified using Ni-NTA beads.
(3) LC-MS analysis of recoding efficiency:Using a Waters Xevo G2-XS TOF Mass Spectrometer, the recoding efficiency of rare codons (CTA, GTA, CGT, CCG, GCG, ACG, and TCG) at the EGFP149 site was evaluated.
(2) Cell transfection and protein expression purification: HEK293T cells were seeded in 10 cm culture dishes and transfected at 60-70% confluency. For each transfection, […] of plasmid carrying mCherry-T2A-EGFPY151TCG-6×His was co-transfected with one of the following recoding system plasmids: chPhe_AcFRS/12×(U6-chPheTCGA), EcTyr_OmeYRS/12×(U6-EcTyrTCGA), or EcLeu_OmeYRS/12×(U6-EcLeuTCGA). After 6 hours, the medium was replaced with serine/glycine-free DMEM/F12 containing 500 μM of the respective unnatural amino acid. Following protein expression and purification, LC-MS was used to determine TCG recoding efficiency at position 151 of EGFP. Detailed transfection and purification protocols following section 2.2.1.2, with cell culture conditions in serine-free medium as described in Example 2.

[3] = system: IL-1B, IL-2, IL-4, IL-6 bearing TCG codon, HEK293T cells; test: TCO-PEG5000 mass tag labeling recoding efficiency in interleukin proteins; conditions: TetRS/PylTCGA, 200 μM TetBu, serine/glycine-free
Protocol: as §1, §2
The recoding system and plasmids containing the TCG codon for the cytokines were co-transfected into HEK293T cells. Six hours post-transfection, the medium was replaced with serine/glycine-free DMEM/F12 medium supplemented with 200 μM TetBu. After 40 hours of protein expression, 500 μL of Modified RIPA lysis buffer was added to each well to lyse the cells. The TCO-PEG5000 labeling method was used to assess the recoding efficiency.

[4] = system: HEK293T cells proteome; test: Proteome background incorporation, TCO-biotin streptavidin dot blot; conditions: CTA and TCG codon groups among 7 rare codons; 200 μM TetBu
Source text: When the TetRS/PylTyyy recoding system is expressed in HEK293T, it recodes endogenous genomic codons into TetBu, generating a modified proteome containing TetBu. The IEDDA reaction between TetBu and trans-cyclooctene (TCO) enables biotinylation of TetBu-containing proteins via TCO-Biotin. Streptavidin dot blot detects biotin signals, where signal intensity correlates with TetBu incorporation levels (FIG. 3, right).
1.3.2 Screening of Rare Codons with Low Background Incorporation • (1) Intracellular expression of the recoding system: Plasmids encoding TetBu/PylTyyy (yyy=anticodons for TCG, ACG, GCG, CCG, CGT, GTA, CTA) were transfected using Lipofectamine 2000. After 6 hours, cells were treated with fresh DMEM±200 μM TetBu for 40 hours. Cells were lysed in 100 μL Modified RIPA Buffer to obtain whole-cell lysates.
The reaction system was prepared as described in Table 3. Reaction products were mixed with 7 μL bromophenol blue-free 4×SDS loading buffer, boiled at 100° C. for 10 min, and analyzed via streptavidin dot blot.
Samples were spotted onto a nitrocellulose membrane and air-dried at room temperature for 15 min. The membrane was washed with 10 mL TBST (80 rpm, 5 min) three times, discarding the supernatant each time. Blocking was performed with 10 mL TBST containing 5% non-fat milk for 1 h, followed by three additional TBST washes (10 mL, 80 rpm, 5 min each). […]

[5] = system: Ser-tRNACGA knockout HEK293T cell lines 1A8, 2A3, 3A12, 4C23; test: LC-MS TCG recoding efficiency in Ser-tRNACGA knockout cell lines; conditions: for efficiency in recoding TCG codon at position 151 of EGFP: single-copy recoding tRNA
Source text: Four sgRNAs targeting Ser-tRNACGA were designed (Table 6). CRISPR/Cas9 was used to generate knockout polyclonal populations, followed by FACS sorting to isolate monoclonal lines. Sequencing confirmed successful editing in four knockout strains: 1A8, 2A3, 3A12, and 4C23 (FIG. 6).
This example evaluates the TCG codon recoding capability of the knockout cell lines using the TetRS/PylTCGA recoding system as a model.

[6] = system: EGFP F84TCG mutant; test: EGFP F84TCG fluorescence activation by UAA
Source text: Using EGFP as an example, this example describes a general method for screening recoding sites and UAA types in protein activation regulated by UAA incorporation. In the absence of UAAs, the TCG recoding system decodes the TCG codon as serine (Ser). To maximize disruption towards protein function, we screened phenylalanine (Phe), tyrosine (Tyr), and tryptophan (Trp)—amino acids with the greatest structural divergence from Ser for potential incorporation. Following identification of Ser-substituted inactivation sites, we screened UAAs capable of rescuing protein activity, yielding optimal recoding system/UAA pairs (a-b of FIG. 22). […] This strategy was successfully extended to diverse proteins including fluorescent proteins (e.g., mCherry), enzymes (e.g., luciferase, kinases, peroxidases), and translation regulators (e.g., initiation factors, post-translational modification readers).

N[C@@H](Cc1ccc(OCc2ccccc2[N+](=O)[O-])cc1)C(=O)O [ONBY]
FLuc activity in the presence of both caged UAAs, before decaging [1]: nearly complete inactivation

CCCCc1nnc(-c2cccc(C[C@H](N)C(=O)O)c2)nn1 [TetBu, (S)-2-amino-3-(3-(6-butyl-1,2,4,5-tetrazin-3-yl)phenyl)propanoic acid]
recoding efficiency ([2]; ACG codon at EGFP149 site): 7.1%
recoding efficiency ([2]; TCG codon at EGFP149 site): 8.5%
TetBu recoding efficiency ([3]; position 62 of IL-2): 80.8%
TetBu recoding efficiency ([3]; position 87 of IL-6): 83.9%
TetBu recoding efficiency ([3]; position 121 of IL-4): 99.3%
TetBu recoding efficiency ([3]; position 205 of IL-1B): 78.10%
proteome-wide background TetBu incorporation (biotin signal intensity) [4]: lowest biotin signal intensity
efficiency in recoding TCG codon at position 151 of EGFP ([5]; knockout cell line 1A8): 61%
efficiency in recoding TCG codon at position 151 of EGFP ([5]; knockout cell line 2A3): 51%
efficiency in recoding TCG codon at position 151 of EGFP ([5]; knockout cell line 3A12): 58%
efficiency in recoding TCG codon at position 151 of EGFP ([5]; knockout cell line 4C23): 68%
improvement of TCG recoding compared to HEK293T cells ([5]; strain 4C23): 1.4 fold

N[C@@H](CCCCNC(=O)OC1/C=C/CCCCC1)C(=O)O (stereo partly drawn) [TCOK]
FLuc activity in the presence of both caged UAAs, before decaging [1]: nearly complete inactivation

[N-]=[N+]=Nc1ccc(COC(=O)NCCCC[C@H](N)C(=O)O)cc1 [PABK]
FLuc activity in the presence of both caged UAAs, before decaging [1]: nearly complete inactivation

COc1ccc(C[C@H](N)C(=O)O)cc1 [OmeY, O-methyl-tyrosine]
concentration with detectable EGFP activation [6]: 0.00001 mM
time to fluorescence activation after UAA delivery [6]: ≤ 1 min
fluorescence enhancement upon UAA addition versus no UAA ([6]; TCG-recoding system decoding OmeY): > 100 fold
